In patent publication US12421218B2, “Substituted pyrazine-carboxamide derivatives” (Boehringer Ingelheim International GmbH, priority 2022, dated 2025) one finds IC50 data, which are given here for one compound.

The target of the test is human metabotropic Glutamate 4 receptor (mGluR4) (Homo sapiens (Human), UniProt Q14833). The test is described as follows: Assay A: In vitro testing of mGluR4 potency (cAMP HTRF, glutamate/forskolin stimulated). The format is cell-based. Conditions: HEK293 cells overexpressing human mGluR4; 10 uM L-glutamic acid, 1 uM forskolin. The procedure: A. In Vitro Testing of mGluR4 Potency
The in vitro activity of the compounds according to the invention may be investigated as follows:
The HEK293 cell overexpressing the human metabotropic Glutamate 4 receptor are thawed at 37° C. and immediately diluted with cell culture medium. After centrifugation, the cell pellet is re-suspended in medium and then distributed from a stirred spinner flask into the wells of the assay plate. The plates are incubated for one hour at room temperature before they are incubated for 24 hours at 37° C./5% CO2. After washing the cells in the plate three times with 80 uL HBSS/HEPES buffer (10 uL buffer remained in the wells after washing), 5 uL per well of compounds diluted in HBSS/HEPES buffer containing 0.2% BSA (final concentration: 0.1%) and 1 mM IBMX (final concentration: 0.5 mM) are added to the wells of the assay plate. Thereafter 5 uL per well of L-Glutamic acid (final concentration: 10 uM), forskolin (final concentration: 1 uM) and 1 mM IBMX (final concentration: 0.5 mM) dissolved in HBSS/HEPES buffer containing 0.2% BSA (final concentration: 0.1%) are added to the assay plate (final DMSO concentration: 1%). […] The emission at 615 nm and 665 nm (Excitation wavelength: 320 nm) are measured on the EnVision™ reader (PerkinElmer). The ratio between the emission at 665 nm and 615 is calculated by the reader. […]
Background: In TR-FRET formats the signal depends on donor and acceptor labels being close together.

Chain of human metabotropic Glutamate 4 receptor (mGluR4) (Q14833 33-912): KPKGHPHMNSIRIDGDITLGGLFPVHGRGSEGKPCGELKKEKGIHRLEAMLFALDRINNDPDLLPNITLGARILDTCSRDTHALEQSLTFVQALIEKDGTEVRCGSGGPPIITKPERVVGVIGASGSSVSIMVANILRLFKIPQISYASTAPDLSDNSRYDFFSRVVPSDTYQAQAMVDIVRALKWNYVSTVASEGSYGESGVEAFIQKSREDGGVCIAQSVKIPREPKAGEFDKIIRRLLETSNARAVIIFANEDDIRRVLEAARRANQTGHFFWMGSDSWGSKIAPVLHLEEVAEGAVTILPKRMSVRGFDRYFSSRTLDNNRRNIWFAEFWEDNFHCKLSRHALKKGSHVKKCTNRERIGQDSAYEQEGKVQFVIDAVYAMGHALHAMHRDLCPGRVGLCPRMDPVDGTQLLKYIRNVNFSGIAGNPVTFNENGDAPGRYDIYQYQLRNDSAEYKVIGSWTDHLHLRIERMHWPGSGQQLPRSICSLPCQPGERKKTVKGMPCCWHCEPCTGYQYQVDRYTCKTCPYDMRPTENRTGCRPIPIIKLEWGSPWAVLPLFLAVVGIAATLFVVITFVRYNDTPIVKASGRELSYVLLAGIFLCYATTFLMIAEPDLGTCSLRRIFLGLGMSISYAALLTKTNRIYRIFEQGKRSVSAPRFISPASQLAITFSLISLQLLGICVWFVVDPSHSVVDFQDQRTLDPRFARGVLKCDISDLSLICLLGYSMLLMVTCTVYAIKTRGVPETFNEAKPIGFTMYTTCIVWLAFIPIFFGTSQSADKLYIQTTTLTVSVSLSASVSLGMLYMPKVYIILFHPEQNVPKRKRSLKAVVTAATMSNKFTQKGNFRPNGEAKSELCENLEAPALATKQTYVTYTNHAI

As a reminder, the IC50 is the concentration that gives 50% inhibition. The low end stands for greater potency, the high end for weaker potency. Compound `CCn1c([C@@H](NC(=O)c2cnc(C(F)F)cn2)C(C)C)nc2cc(F)ccc21` [Example 59, 5-(difluoromethyl)-N-[(1S)-1-(1-ethyl-5-fluoro-1H-1,3-benzodiazol-2-yl)-2-methylpropyl]pyrazine-2-carboxamide] gave a 50% inhibitory concentration (IC50) of 4 nM.
